The record followed here is patent US20040115249A1, “Ionic compounds of quaternary ammonium cations with anions of preservation acids, preparation thereof, and use thereof for preservation” (priority 2002, published 2004).

The subject of the assay is microorganisms from different sectors (molds, yeasts, bacteria). An excerpt: The product obtained in example 2 was used in a test of antimicrobial activity.

Regarding “n-alkyldimethylethylbenzylammonium Sorbate [Example 2]”, the minimum inhibitory concentrations entry is reported as “Very low”.
